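96-well plates; 48 h exposure; 5 concentrations. Endpoints by linear interpolation between flanking doses. Not reached: highest tested concentration assigned. Definition used: TGI = concentration required for complete inhibition of growth.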
Experiments:
Experiment in all cases: growth of human tumour cells (NCI), 48 h
786-0 renal = test system: 786-0 renal
A498 renal = test system: A498 renal
A549 NSCLC = test system: A549 NSCLC
ACHN renal = test system: ACHN renal
BT-549 breast = test system: BT-549 breast
CAKI-1 renal = test system: CAKI-1 renal
CCRF-CEM leukemia = test system: CCRF-CEM leukemia
COLO 205 colon = test system: COLO 205 colon
DU-145 prostate = test system: DU-145 prostate
EKVX NSCLC = test system: EKVX NSCLC
HCC-2998 colon = test system: HCC-2998 colon
HCT-116 colon = test system: HCT-116 colon
HCT-15 colon = test system: HCT-15 colon
HL-60(TB) leukemia = test system: HL-60(TB) leukemia
HOP-62 NSCLC = test system: HOP-62 NSCLC
HOP-92 NSCLC = test system: HOP-92 NSCLC
HS 578T breast = test system: HS 578T breast
HT29 colon = test system: HT29 colon
IGROV1 ovarian = test system: IGROV1 ovarian
K-562 leukemia = test system: K-562 leukemia
KM12 colon = test system: KM12 colon
LOX IMVI melanoma = test system: LOX IMVI melanoma
M14 melanoma = test system: M14 melanoma
MALME-3M melanoma = test system: MALME-3M melanoma
MCF7 breast = test system: MCF7 breast
MDA-MB-231 breast = test system: MDA-MB-231 breast
MDA-MB-435 = test system: MDA-MB-435
MDA-N = test system: MDA-N
MOLT-4 leukemia = test system: MOLT-4 leukemia
NCI-H226 lung = test system: NCI-H226 lung
NCI-H23 lung = test system: NCI-H23 lung
NCI-H460 lung = test system: NCI-H460 lung
NCI-H522 lung = test system: NCI-H522 lung
NCI/ADR-RES ovarian = test system: NCI/ADR-RES ovarian
OVCAR-3 ovarian = test system: OVCAR-3 ovarian
OVCAR-4 ovarian = test system: OVCAR-4 ovarian
OVCAR-8 ovarian = test system: OVCAR-8 ovarian
PC-3 prostate = test system: PC-3 prostate
RPMI-8226 leukemia = test system: RPMI-8226 leukemia
RXF 393 renal = test system: RXF 393 renal
SF-268 CNS = test system: SF-268 CNS
SF-295 CNS = test system: SF-295 CNS
SF-539 CNS = test system: SF-539 CNS
SK-MEL-28 melanoma = test system: SK-MEL-28 melanoma
SK-MEL-5 melanoma = test system: SK-MEL-5 melanoma
SK-OV-3 ovarian = test system: SK-OV-3 ovarian
SN12C renal = test system: SN12C renal
SNB-19 CNS = test system: SNB-19 CNS
SR leukemia = test system: SR leukemia
SW-620 colon = test system: SW-620 colon
T-47D breast = test system: T-47D breast
TK-10 renal = test system: TK-10 renal
U251 CNS = test system: U251 CNS
UACC-257 melanoma = test system: UACC-257 melanoma
UACC-62 melanoma = test system: UACC-62 melanoma
UO-31 renal = test system: UO-31 renal
OVCAR-5 ovarian = test system: OVCAR-5 ovarian
SNB-75 CNS = test system: SNB-75 CNS

CSc1nc(NC2CCCC2)c2cc[nH]c2n1
TGI (786-0 renal): > 100 µM
TGI (A498 renal): 80.3 µM
TGI (A549 NSCLC): > 100 µM
TGI (ACHN renal): > 100 µM
TGI (BT-549 breast): > 100 µM
TGI (CAKI-1 renal): > 100 µM
TGI (CCRF-CEM leukemia): > 100 µM
TGI (COLO 205 colon): > 100 µM
TGI (DU-145 prostate): > 100 µM
TGI (EKVX NSCLC): > 100 µM
TGI (HCC-2998 colon): > 100 µM
TGI (HCT-116 colon): > 100 µM
TGI (HCT-15 colon): > 100 µM
TGI (HL-60(TB) leukemia): 47.4 µM
TGI (HOP-62 NSCLC): > 100 µM
TGI (HOP-92 NSCLC): > 100 µM
TGI (HS 578T breast): > 100 µM
TGI (HT29 colon): > 100 µM
TGI (IGROV1 ovarian): > 100 µM
TGI (K-562 leukemia): > 100 µM
TGI (KM12 colon): > 100 µM
TGI (LOX IMVI melanoma): > 100 µM
TGI (M14 melanoma): > 100 µM
TGI (MALME-3M melanoma): > 100 µM
TGI (MCF7 breast): > 100 µM
TGI (MDA-MB-231 breast): > 100 µM
TGI (MDA-MB-435): > 100 µM
TGI (MDA-N): > 100 µM
TGI (MOLT-4 leukemia): > 100 µM
TGI (NCI-H226 lung): > 100 µM
TGI (NCI-H23 lung): > 100 µM
TGI (NCI-H460 lung): > 100 µM
TGI (NCI-H522 lung): > 100 µM
TGI (NCI/ADR-RES ovarian): > 100 µM
TGI (OVCAR-3 ovarian): > 100 µM
TGI (OVCAR-4 ovarian): > 100 µM
TGI (OVCAR-8 ovarian): > 100 µM
TGI (PC-3 prostate): > 100 µM
TGI (RPMI-8226 leukemia): > 100 µM
TGI (RXF 393 renal): > 100 µM
TGI (SF-268 CNS): > 100 µM
TGI (SF-295 CNS): > 100 µM
TGI (SF-539 CNS): > 100 µM
TGI (SK-MEL-28 melanoma): > 100 µM
TGI (SK-MEL-5 melanoma): 96.6 µM
TGI (SK-OV-3 ovarian): > 100 µM
TGI (SN12C renal): > 100 µM
TGI (SNB-19 CNS): > 100 µM
TGI (SR leukemia): 61.6 µM
TGI (SW-620 colon): > 100 µM
TGI (T-47D breast): > 100 µM
TGI (TK-10 renal): > 100 µM
TGI (U251 CNS): > 100 µM
TGI (UACC-257 melanoma): > 100 µM
TGI (UACC-62 melanoma): > 100 µM
TGI (UO-31 renal): > 100 µM

CC(C)CCCC(C)[C@H]1CCC2[C@@H]3CCC4Cc5nc6c(nc5C[C@]4(C)C3CC[C@@]21C)CC1CC[C@@H]2C(C[C@@H](O)[C@@]3(C)C2C[C@@H]2OC4(CCC(C)CO4)C(C)[C@@H]23)[C@@]1(C)C6 (some centres undefined)
TGI (786-0 renal): > 100 µM
TGI (A549 NSCLC): > 100 µM
TGI (ACHN renal): > 100 µM
TGI (BT-549 breast): > 100 µM
TGI (CCRF-CEM leukemia): > 100 µM
TGI (COLO 205 colon): > 100 µM
TGI (DU-145 prostate): > 100 µM
TGI (EKVX NSCLC): > 100 µM
TGI (HCC-2998 colon): > 100 µM
TGI (HCT-116 colon): > 100 µM
TGI (HCT-15 colon): > 100 µM
TGI (HL-60(TB) leukemia): > 100 µM
TGI (HOP-62 NSCLC): > 100 µM
TGI (HOP-92 NSCLC): > 100 µM
TGI (HS 578T breast): > 100 µM
TGI (HT29 colon): > 100 µM
TGI (IGROV1 ovarian): > 100 µM
TGI (K-562 leukemia): > 100 µM
TGI (KM12 colon): > 100 µM
TGI (M14 melanoma): > 100 µM
TGI (MCF7 breast): > 100 µM
TGI (MDA-MB-231 breast): > 100 µM
TGI (MDA-MB-435): > 100 µM
TGI (MDA-N): > 100 µM
TGI (MOLT-4 leukemia): > 100 µM
TGI (NCI-H226 lung): > 100 µM
TGI (NCI-H23 lung): > 100 µM
TGI (NCI-H460 lung): > 100 µM
TGI (NCI-H522 lung): > 100 µM
TGI (NCI/ADR-RES ovarian): > 100 µM
TGI (OVCAR-3 ovarian): > 100 µM
TGI (OVCAR-4 ovarian): > 100 µM
TGI (OVCAR-5 ovarian): > 100 µM
TGI (OVCAR-8 ovarian): > 100 µM
TGI (PC-3 prostate): > 100 µM
TGI (RPMI-8226 leukemia): > 100 µM
TGI (RXF 393 renal): > 100 µM
TGI (SF-268 CNS): > 100 µM
TGI (SF-295 CNS): > 100 µM
TGI (SF-539 CNS): > 100 µM
TGI (SK-MEL-28 melanoma): > 100 µM
TGI (SK-MEL-5 melanoma): > 100 µM
TGI (SK-OV-3 ovarian): > 100 µM
TGI (SN12C renal): > 100 µM
TGI (SNB-19 CNS): > 100 µM
TGI (SNB-75 CNS): > 100 µM
TGI (SR leukemia): > 100 µM
TGI (SW-620 colon): > 100 µM
TGI (T-47D breast): > 100 µM
TGI (TK-10 renal): > 100 µM
TGI (U251 CNS): > 100 µM
TGI (UACC-257 melanoma): > 100 µM
TGI (UACC-62 melanoma): > 100 µM

Reference: PubChem BioAssay (NCI)
